Test results taken from publication PMC9516332 (Frontiers in Oncology, 2022).
Like-named read-outs stand apart in the source and are kept apart here.

Key:
Assay in all cases: Kinase panel profiling at 1 µmol/L (MSA or IMAP), percentage inhibition
Type in all cases: biochemical
[1] = target: T1, panel of 255 wild-type kinases (Homo sapiens, UniProt Q8IWQ3); details: read-out: %-inhibition BRSK2
T1 sequence (Q8IWQ3 1-736): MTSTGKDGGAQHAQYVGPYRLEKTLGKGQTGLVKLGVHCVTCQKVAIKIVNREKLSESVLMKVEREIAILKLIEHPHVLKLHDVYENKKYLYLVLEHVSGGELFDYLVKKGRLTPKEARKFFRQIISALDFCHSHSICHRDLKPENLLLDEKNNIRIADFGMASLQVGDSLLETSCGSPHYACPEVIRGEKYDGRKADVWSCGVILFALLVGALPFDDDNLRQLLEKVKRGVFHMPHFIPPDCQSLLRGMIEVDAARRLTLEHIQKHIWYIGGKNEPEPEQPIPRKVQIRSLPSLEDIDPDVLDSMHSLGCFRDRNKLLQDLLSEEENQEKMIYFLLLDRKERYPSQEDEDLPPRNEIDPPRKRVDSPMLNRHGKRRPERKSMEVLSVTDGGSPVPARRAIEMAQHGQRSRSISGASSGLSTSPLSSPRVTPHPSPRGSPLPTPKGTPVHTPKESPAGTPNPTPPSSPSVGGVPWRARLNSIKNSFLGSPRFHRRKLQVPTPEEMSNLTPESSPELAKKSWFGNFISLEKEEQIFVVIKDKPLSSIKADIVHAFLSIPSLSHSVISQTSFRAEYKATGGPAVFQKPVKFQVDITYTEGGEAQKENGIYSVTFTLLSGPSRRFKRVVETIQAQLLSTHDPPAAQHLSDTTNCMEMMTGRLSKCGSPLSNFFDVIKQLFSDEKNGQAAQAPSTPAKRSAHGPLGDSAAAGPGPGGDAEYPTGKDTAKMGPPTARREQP

[2] = target: panel of 255 wild-type kinases (Homo sapiens, UniProt Q9UM73); details: read-out: %-inhibition ALK
[3] = target: T2, panel of 255 wild-type kinases (Homo sapiens, UniProt Q8TF76); details: read-out: %-inhibition at 1 µmol/L, Haspin
T2 sequence (Q8TF76 1-798): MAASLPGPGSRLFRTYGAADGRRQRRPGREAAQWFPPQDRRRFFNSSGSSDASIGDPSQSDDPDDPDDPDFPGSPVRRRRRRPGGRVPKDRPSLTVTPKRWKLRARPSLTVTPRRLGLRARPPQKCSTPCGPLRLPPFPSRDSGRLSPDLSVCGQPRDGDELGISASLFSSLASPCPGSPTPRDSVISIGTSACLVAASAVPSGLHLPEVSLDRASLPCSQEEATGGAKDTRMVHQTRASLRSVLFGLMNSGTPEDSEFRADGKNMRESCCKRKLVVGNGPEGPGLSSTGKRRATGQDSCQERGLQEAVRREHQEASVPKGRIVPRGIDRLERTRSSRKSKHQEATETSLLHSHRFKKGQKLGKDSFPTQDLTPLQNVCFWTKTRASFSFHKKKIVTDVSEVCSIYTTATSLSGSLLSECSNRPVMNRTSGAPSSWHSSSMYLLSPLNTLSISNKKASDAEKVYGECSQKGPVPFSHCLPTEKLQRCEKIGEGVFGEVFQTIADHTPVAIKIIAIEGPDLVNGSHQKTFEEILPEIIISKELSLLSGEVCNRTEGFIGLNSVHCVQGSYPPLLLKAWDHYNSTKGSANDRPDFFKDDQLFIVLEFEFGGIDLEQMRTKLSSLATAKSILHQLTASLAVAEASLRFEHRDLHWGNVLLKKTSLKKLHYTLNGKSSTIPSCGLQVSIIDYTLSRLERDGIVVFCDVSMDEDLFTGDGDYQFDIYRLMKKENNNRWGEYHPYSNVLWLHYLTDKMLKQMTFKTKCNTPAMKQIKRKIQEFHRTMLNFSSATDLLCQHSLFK

[4] = target: panel of 255 wild-type kinases (Homo sapiens, UniProt Q16644); details: read-out: %-inhibition, MAPKAPK3
[5] = target: panel of 255 wild-type kinases (Homo sapiens, UniProt Q9NYY3); details: read-out: %-inhibition at 1 µmol/L, PLK2
[6] = target: T3, panel of 255 wild-type kinases (Homo sapiens, UniProt P21709); details: read-out: %-inhibition at 1 µmol/L, EPHA1
T3 sequence (P21709 26-976): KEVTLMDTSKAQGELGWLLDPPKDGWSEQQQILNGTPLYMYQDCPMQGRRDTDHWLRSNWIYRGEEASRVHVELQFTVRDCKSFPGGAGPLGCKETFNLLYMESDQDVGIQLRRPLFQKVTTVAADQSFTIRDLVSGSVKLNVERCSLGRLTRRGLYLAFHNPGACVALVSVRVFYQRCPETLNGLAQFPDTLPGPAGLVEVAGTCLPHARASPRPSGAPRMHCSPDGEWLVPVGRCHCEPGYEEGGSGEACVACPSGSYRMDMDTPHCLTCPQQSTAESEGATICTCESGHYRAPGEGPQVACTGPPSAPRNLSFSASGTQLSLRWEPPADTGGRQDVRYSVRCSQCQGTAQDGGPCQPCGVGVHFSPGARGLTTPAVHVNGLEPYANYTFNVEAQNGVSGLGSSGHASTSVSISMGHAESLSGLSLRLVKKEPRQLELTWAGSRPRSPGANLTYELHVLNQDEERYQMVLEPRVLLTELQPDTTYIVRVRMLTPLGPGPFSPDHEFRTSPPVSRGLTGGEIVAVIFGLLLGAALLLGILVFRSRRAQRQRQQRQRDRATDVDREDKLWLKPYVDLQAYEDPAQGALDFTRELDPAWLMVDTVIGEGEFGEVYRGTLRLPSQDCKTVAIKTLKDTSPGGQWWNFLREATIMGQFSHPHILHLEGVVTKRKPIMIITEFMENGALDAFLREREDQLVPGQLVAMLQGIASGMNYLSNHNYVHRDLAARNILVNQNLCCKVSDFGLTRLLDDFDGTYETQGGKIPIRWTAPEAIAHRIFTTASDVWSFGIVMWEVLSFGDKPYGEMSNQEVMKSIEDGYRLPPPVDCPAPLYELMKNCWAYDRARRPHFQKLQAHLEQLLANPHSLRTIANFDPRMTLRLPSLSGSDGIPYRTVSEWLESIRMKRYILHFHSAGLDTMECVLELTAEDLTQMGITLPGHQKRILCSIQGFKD

[7] = BRSK2 kinase assay, 1 µmol/L single concentration
[8] = ALK kinase assay, 1 µmol/L single concentration
[9] = kinase Haspin, 1 µmol/L single concentration
[10] = MAPKAPK3, 1 µmol/L single concentration
[11] = kinase PLK2, 1 µmol/L single concentration
[12] = kinase EPHA1, 1 µmol/L single concentration

| SMILES | inhibition at 1 µM [1, 7] [%] | inhibition at 1 µM [2, 8] [%] | inhibition at 1 µM [3, 9] [%] | inhibition at 1 µM [4, 10] [%] | inhibition at 1 µM [5, 11] [%] | inhibition at 1 µM [6, 12] [%] | inhibition at 1 µM [1] [%] | inhibition at 1 µM [2] [%] | inhibition at 1 µM [3] [%] | inhibition at 1 µM [4] [%] | inhibition at 1 µM [5] [%] | inhibition at 1 µM [6] [%] |
| --- | --- | --- | --- | --- | --- | --- | --- | --- | --- | --- | --- | --- |
| Cc1nc(NC(=O)N2CCC[C@H]2C(N)=O)sc1-c1ccnc(C(C)(C)C(F)(F)F)c1 [alpelisib] | 14 | 1.84 | -4 | -13 | 10 | -3.59 |  |  |  |  |  |  |
| Cn1cc(-c2cc3c(N4CCN(c5ncc([C@@](C)(N)c6ccc(F)cc6)cn5)CC4)ncnn3c2)cn1 [avapritinib] | 11 | 35 | 59 | -4 | 7 | 51 |  |  |  |  |  |  |
| Cn1cnc2c(F)c(Nc3ccc(Br)cc3F)c(C(=O)NOCCO)cc21 [binimetinib] | -13 | 6.37 | -15 | -11 | -5 | 4 |  |  |  |  |  |  |
| CNC(=O)c1ccc(-c2cnc3ncc(Cc4ccc5ncccc5c4)n3n2)cc1F [capmatinib] |  |  |  |  |  |  | 1 | 28 | 37 | -11 | 7 | -3.32 |
| COc1cc2ncnc(Nc3ccc(F)c(Cl)c3)c2cc1NC(=O)/C=C/CN1CCCCC1 [dacomitinib] | 6.47 | 17 | 13 | -25 | 5 | 79 |  |  |  |  |  |  |
| C[C@H](Nc1ncnc2nc[nH]c12)c1cc2cccc(Cl)c2c(=O)n1-c1ccccc1 [duvelisib] | 11 | 3.74 | 2 | -13 | 13 | -7 |  |  |  |  |  |  |
| COC(=O)N[C@@H](C)CNc1nccc(-c2cn(C(C)C)nc2-c2cc(Cl)cc(NS(C)(=O)=O)c2F)n1 [encorafenib] | -8 | 8 | -5 | -15 | -2.68 | 5.42 |  |  |  |  |  |  |
| CN1CCN(c2ccc(C(=O)Nc3n[nH]c4ccc(Cc5cc(F)cc(F)c5)cc34)c(NC3CCOCC3)c2)CC1 [entrectinib] | 18 | 100 | -2.24 | -10 | 14 | 88 |  |  |  |  |  |  |
| CCc1nc(C(N)=O)c(Nc2ccc(N3CCC(N4CCN(C)CC4)CC3)c(OC)c2)nc1NC1CCOCC1 [gilteritinib] | 23 | 101 | 35 | -16 | 4.71 | 99 |  |  |  |  |  |  |
| CCN1CCN(c2ccc(Nc3cc(N(C)C(=O)Nc4c(Cl)c(OC)cc(OC)c4Cl)ncn3)cc2)CC1 [infigratinib] | 2.65 | 43 | -1.4 | -17 | 3.65 | -2 |  |  |  |  |  |  |
| O=C(Nc1cnn2ccc(N3CCC[C@@H]3c3cc(F)ccc3F)nc12)N1CC[C@H](O)C1 [larotrectinib] | 0.485 | 7 | -4.46 | -16 | 2.14 | -2.54 |  |  |  |  |  |  |
| C[C@H]1Oc2cc(cnc2N)-c2c(nn(C)c2C#N)CN(C)C(=O)c2ccc(F)cc21 [lorlatinib] | 36 |  | 0.865 | -10 | 10 | 73 |  |  |  |  |  |  |
| CCN1C(=O)N(c2c(F)c(OC)cc(OC)c2F)Cc2cnc3[nH]c(CN4CCOCC4)cc3c21 [pemigatinib] | 3.17 | -1.12 | -3.7 | -12 | 0.757 | -4 |  |  |  |  |  |  |
| FC(F)(F)c1ccc(CNc2ccc(Cc3c[nH]c4ncc(Cl)cc34)cn2)cn1 [pexidartinib] | 5.28 | 11 | 6.52 | -15 | 7 | 7 |  |  |  |  |  |  |
| CO[C@]1(C(=O)N[C@@H](C)c2ccc(-n3cc(F)cn3)nc2)CC[C@H](c2nc(C)cc(Nc3cc(C)[nH]n3)n2)CC1 [pralsetinib] | 14 | 35 | 0.149 | -22 | 6.54 | 66 |  |  |  |  |  |  |
| CCn1c(=O)c(-c2cc(NC(=O)Nc3ccccc3)c(F)cc2Br)cc2cnc(NC)cc21 [ripretinib] | 8 | 2.68 | 1.87 | -16 | 6 | 78 |  |  |  |  |  |  |
| COc1ccc(CN2C3CC2CN(c2ccc(-c4cc(OCC(C)(C)O)cn5ncc(C#N)c45)cn2)C3)cn1 [selpercatinib] | 35 | 4 | -4.63 | -12 | 4 | 79 |  |  |  |  |  |  |
| Cn1cnc2c(F)c(Nc3ccc(Br)cc3Cl)c(C(=O)NOCCO)cc21 [selumetinib] | 4 |  | 3.64 | -14 | 2.78 | -2.25 |  |  |  |  |  |  |
| Cc1cc(Nc2ncnc3ccc(NC4=NC(C)(C)CO4)cc23)ccc1Oc1ccn2ncnc2c1 [tucatinib] | 7 | 32 | 0.893 | -3 | 7 | 21 |  |  |  |  |  |  |
